For this test, the target named is Polyunsaturated fatty acid 5-lipoxygenase (Cavia porcellus). The test is described as follows: Inhibition of [14C]arachidonic acid conversion to 5-HETE by broken cell 5-LO isolated from guinea pig PMN.
Broadly, the IC50 is the concentration needed to halve the response being measured. For `Cc1cc(=O)n(CCOc2ccc3c(c2)Nc2ccccc2S3)[nH]1` [5-Methyl-2-[2-(10H-phenothiazin-2-yloxy)-ethyl]-2,4-dihydro-pyrazol-3-one], 0.057 µM corresponded to half-maximal inhibition (IC50).

Turning to `O=c1c2c([nH]n1CCOc1ccc3ccccc3c1)CCCC2` [2-[2-(Naphthalen-2-yloxy)-ethyl]-2,3a,4,5,6,7-hexahydro-indazol-3-one], the IC50 was found to be 0.31 µM.

The compound `O=c1c2c([nH]n1CCOc1ccc3ccccc3c1)CCC2` [2-[2-(Naphthalen-2-yloxy)-ethyl]-3a,4,5,6-tetrahydro-2H-cyclopentapyrazol-3-one] displayed an IC50 of 0.48 µM.

These data come from BindingDB's records for doi:10.1016/S0960-894X(00)80655-1 (1992).
